The values below come from PMC5500991, “Substituted arylsulphonamides as inhibitors of perforin-mediated lysis” (European Journal of Medicinal Chemistry, 2017).

The target of data set [1] is T1, perforin delivered by KHYG1 NK cells (Homo sapiens, UniProt P14222).
T1 construct: The use of whole NK cells to deliver perforin provides a more realistic model of conditions in vivo; endogenous in cells; host or cells: KHYG1 human NK cells (effector); K562 leukemia target cells
T1 sequence (P14222 22-555): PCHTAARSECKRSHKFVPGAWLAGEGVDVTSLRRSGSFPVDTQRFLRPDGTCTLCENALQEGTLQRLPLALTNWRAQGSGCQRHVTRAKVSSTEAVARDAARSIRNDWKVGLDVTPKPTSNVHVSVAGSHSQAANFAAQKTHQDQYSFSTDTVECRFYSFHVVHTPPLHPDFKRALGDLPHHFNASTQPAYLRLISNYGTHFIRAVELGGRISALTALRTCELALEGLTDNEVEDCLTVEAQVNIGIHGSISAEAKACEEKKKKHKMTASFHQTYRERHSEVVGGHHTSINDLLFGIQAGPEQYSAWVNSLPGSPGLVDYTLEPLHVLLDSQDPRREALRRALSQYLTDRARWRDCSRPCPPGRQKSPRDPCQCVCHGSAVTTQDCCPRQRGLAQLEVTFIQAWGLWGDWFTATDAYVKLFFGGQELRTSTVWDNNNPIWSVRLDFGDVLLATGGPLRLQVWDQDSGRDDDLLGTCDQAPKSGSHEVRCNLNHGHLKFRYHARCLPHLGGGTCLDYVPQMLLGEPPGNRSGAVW
Kind of data set: KHYG1 inhibitory assay: lysis of 51Cr-labelled K562 target cells by KHYG1 NK cells. It is filed as cell-based. To be noted: 51Cr-labelled K562 target cells co-incubated with KHYG1 human NK cells, vs untreated control, n = 4. How it is done: The inhibitory function is then determined by identifying the number of untreated or inhibitor treated effector cells required to kill the same number of targets.

A short description of data set [2]: Toxicity to KHYG1 NK cells (Trypan blue exclusion). The format is cell-based, human. The note with it: human, viability of KHYG1 NK cells after 24 h, n = 3.
The nature of data set [3]: In vivo plasma pharmacokinetics in mice. To be noted: mouse plasma, 10 mg/kg i.p. in 20% hydroxypropyl-β-cyclodextrin. On the procedure: The in vivo PK parameters were measured for seven compounds selected on the basis of the in vitro assessment described above. Plasma pharmacokinetics were determined in male CD-1 mice for compounds 3, 10, 11, 26, 50, 58 and 59 (Table 6). Blood samples were collected at 5–8 time-points after dosing the compounds at 10 mg/kg in a solution of 20% hydroxypropyl-β-cyclodextrin by intraperitoneal (IP) injection. For analysis of the samples, chromatographic conditions were optimised by HPLC for each compound of interest and an internal standard. A liquid chromatography with tandem mass spectrometry (LC-MS/MS) method was then developed and validated for quantitation of each analyte.
PK studies were carried out in female C57BL/6J (female) mice using IP administration of test compound, dosing at 10 mg/kg in a solution of 20% hydroxypropyl-β-cyclodextrin. Mice (n=3 at each time point) were culled with excess inhalation of CO2 and blood collected by cardiac puncture at 5-8 time points after dosing in ice cold EDTA tubes. Plasma was separated by centrifuging at 6000 rpm for 5 min and stored at -80°C until analysis by LC-MS/MS. Frozen plasma was thawed on wet ice on the day of analysis. Ten μL of sample was transferred to a clean microcentrifuge tube and mixed with ice cold acetonitrile (40 μL containing internal standard) to precipitate the plasma proteins. The tubes were centrifuged at 13000 rpm for 5 min to obtain a clear supernatant which was mixed with 0.01% formic acid-water (1:2). Ten to twenty µL was injected into the LC-MS/MS to measure the analyte concentration in the sample. The samples were quantitated against a calibration curve of known analyte concentrations run in test species blank plasma (sourced from Innovative Research, USA). The concentration vs time data was then fitted into a pharmacokinetic software program (Phoenix WinNonlin v6.2) to calculate the PK parameters including T½, Cmax and AUC0-∞.

Details of data set [4]: method as in PMID 28110869. The note with it: sodium salt in water at room temperature; cited from earlier work.
On the set-up of data set [5]: method as in PMID 28110869. The note with it: sodium salt, 24 h at 20 °C in water; cited from earlier work.
Details of data set [6]: method as in PMID 28110869. The note with it: parent remaining after 30 min, rat microsomes; cited from earlier work.

Take `CN1Cc2cc(-c3ccc(-c4cncc(NS(=O)(=O)c5ccc(F)cc5F)c4)s3)ccc2C1=O` [Compound 3]: in data set [1], the inhibition at 10 µM came to 67.5 ± 17.5%. Further, in data set [2], the viability at 24 h, 10 µM was determined as 100%. In addition, in data set [3], the “AUC0-∞” value was determined as 220 µmol·h/L, the highest level (Cmax) was 10 µM and the T1/2 is 12.0 h. In addition, the Solubility in data set [4] was 1080 µg/mL. For the same compound, the “Stability in Solution (% parent remaining)” value in data set [5] is 82%. Moreover, in data set [6], the “Microsome Stability (%) Rat” value is listed as 99%.
